One series concerns Keratinocytes. The note with it: 5 μM.
For another series, the system named is prostaglandin F2a. The format is cell-based. The note with it: 5 μM.

SMILES strings stand for the structures. “And” between values parts separate entries of the source, which are not always exact repeats. Identical values can stand only once.

Consider `CS(=O)(=O)Nc1ccc([N+](=O)[O-])cc1OC1CCCCC1` [NS-398], for which, in the series with Keratinocytes, the “Cytotoxicity test (MTT), % of control” value was determined as 102.0% and the “Cytotoxicity test (MTT), Mean” value was 0.8720. In the series on prostaglandin F2a, the “Absorbance value (405 nm), individual measurements (n=4)” value is 0.6170 and 0.6000 and 0.6110 and 0.6220; the “PGF2alpha (pg/mL), individual measurements (n=4)” value is 70.9 pg/mL and 86.8 pg/mL and 76.1 pg/mL and 66.8 pg/mL; the “PGF2alpha (pg/mL)/MTT, Mean” value is given as 86.3 (pg/mL)/MTT; the “PGF2alpha (pg/mL)/MTT, individual measurements (n=4)” value was 81.5 (pg/mL)/MTT and 101.6 (pg/mL)/MTT and 86.6 (pg/mL)/MTT and 75.4 (pg/mL)/MTT. Moreover, in the series on prostaglandin F2a, the “prostaglandin F2a expression, % of control” value stood at 9.3%.

These data come from patent publication US20250255941A1 (priority 2021, published 2025).
